Experimental data from ChEMBL document CHEMBL1201862, “PubChem BioAssay data set” (2004).
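Values below derive from 48-hour exposures of cells grown in 96-well plates, with endpoints linearly interpolated between the two concentrations bracketing the appropriate inhibition level. The concentration for 50% growth inhibition is given as GI50.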 The source made the active and inactive calls. Cut-off read from the data, not from the text of the source: active = GI50 up to about 1.1 µM and inactive = higher.

Columns and labels:
Assay in all cases: inhibition of tumour cell growth, NCI panel, 48 h
[1] = test system: SNB-19
[2] = test system: 786-0
[3] = test system: NCI-H522
[4] = test system: A549
[5] = test system: NCI-H460
[6] = test system: MDA-MB-435
[7] = test system: K562
[8] = test system: IGROV-1
[9] = test system: DU-145
[10] = test system: UO-31
[11] = test system: T47D
[12] = test system: HCT-116
[13] = test system: PC-3
[14] = test system: SK-OV-3
[15] = test system: SNB-75
[16] = test system: UACC-257
[17] = test system: MCF7
[18] = test system: BT-549
[19] = test system: MDA-N
[20] = test system: SR
[21] = test system: EKVX
[22] = test system: HT-29
[23] = test system: SN12C
[24] = test system: SW-620
[25] = test system: SK-MEL-5
[26] = test system: NCI/ADR-RES
[27] = test system: Hs-578T
[28] = test system: SK-MEL-2
[29] = test system: HCC 2998
[30] = test system: COLO 205
[31] = test system: Malme-3M
[32] = test system: SF-539
[33] = test system: ACHN
[34] = test system: SK-MEL-28
[35] = test system: MOLT-4
[36] = test system: CAKI-1
[37] = test system: SF-295
[38] = test system: HL-60
[39] = test system: HOP-92
[40] = test system: MDA-MB-231
[41] = test system: OVCAR-5
[42] = test system: U-251
[43] = test system: NCI-H226
[44] = test system: KM12
[45] = test system: UACC-62
[46] = test system: SF-268
[47] = test system: LOX IMVI
[48] = test system: HCT-15
[49] = test system: OVCAR-4
[50] = test system: TK-10
[51] = test system: RXF 393
[52] = test system: CCRF-CEM
[53] = test system: HOP-62
[54] = test system: M14
[55] = test system: RPMI-8226
[56] = test system: OVCAR-8
[57] = test system: OVCAR-3
[58] = test system: NCI-H23

## N#C/C(=C\c1ccc(Cl)cc1)c1nc2ccccc2c(=O)[nH]1
[1]
  GI50: 85.9 µM (inactive)
[2]
  GI50: 44.4 µM (inactive)
[3]
  GI50: 37.4 µM (inactive)
[4]
  GI50: > 100 µM (inactive)
[5]
  GI50: > 100 µM (inactive)
[6]
  GI50: > 100 µM (inactive)
[7]
  GI50: > 100 µM (inactive)
[8]
  GI50: > 100 µM (inactive)
[9]
  GI50: > 100 µM (inactive)
[10]
  GI50: > 100 µM (inactive)
[11]
  GI50: > 100 µM (inactive)
[12]
  GI50: > 100 µM (inactive)
[13]
  GI50: > 100 µM (inactive)
[14]
  GI50: > 100 µM (inactive)
[15]
  GI50: 17.1 µM (inactive)
[16]
  GI50: > 100 µM (inactive)
[17]
  GI50: > 100 µM (inactive)
[18]
  GI50: 23.4 µM (inactive)
[19]
  GI50: > 100 µM (inactive)
[20]
  GI50: > 100 µM (inactive)
[21]
  GI50: > 100 µM (inactive)
[22]
  GI50: > 100 µM (inactive)
[23]
  GI50: > 100 µM (inactive)
[24]
  GI50: > 100 µM (inactive)
[25]
  GI50: > 100 µM (inactive)
[26]
  GI50: > 100 µM (inactive)
[27]
  GI50: 17.9 µM (inactive)
[28]
  GI50: > 100 µM (inactive)
[29]
  GI50: > 100 µM (inactive)
[30]
  GI50: > 100 µM (inactive)
[31]
  GI50: > 100 µM (inactive)
[32]
  GI50: > 100 µM (inactive)
[33]
  GI50: 65.8 µM (inactive)
[34]
  GI50: > 100 µM (inactive)
[35]
  GI50: > 100 µM (inactive)
[36]
  GI50: > 100 µM (inactive)
[37]
  GI50: 47.4 µM (inactive)
[38]
  GI50: > 100 µM (inactive)
[39]
  GI50: 11 µM (inactive)
[40]
  GI50: 33.8 µM (inactive)
[41]
  GI50: > 100 µM (inactive)
[42]
  GI50: 52.5 µM (inactive)
[43]
  GI50: > 100 µM (inactive)
[44]
  GI50: > 100 µM (inactive)
[45]
  GI50: 43.7 µM (inactive)
[46]
  GI50: 51.6 µM (inactive)
[47]
  GI50: > 100 µM (inactive)
[48]
  GI50: > 100 µM
[49]
  GI50: > 100 µM (inactive)
[50]
  GI50: 76 µM (inactive)
[51]
  GI50: 81.5 µM (inactive)
[52]
  GI50: > 100 µM (inactive)
[53]
  GI50: 33 µM (inactive)
[54]
  GI50: > 100 µM (inactive)
[55]
  GI50: > 100 µM (inactive)
[56]
  GI50: > 100 µM (inactive)

## Clc1cc(N/N=C(\c2ccccc2)c2ccccn2)ncn1
[1]
  GI50: 1.85 µM (inactive)
[3]
  GI50: < 0.01 µM (active)
[4]
  GI50: 0.55 µM (active)
[5]
  GI50: 0.0262 µM (active)
[6]
  GI50: 1.02 µM (active)
[7]
  GI50: 0.0644 µM (active)
[8]
  GI50: 0.0308 µM (active)
[9]
  GI50: 0.5 µM (active)
[10]
  GI50: 0.324 µM (active)
[11]
  GI50: < 0.01 µM (active)
[12]
  GI50: 0.0277 µM (active)
[13]
  GI50: 0.0728 µM (active)
[14]
  GI50: 0.301 µM (active)
[15]
  GI50: 20.7 µM (inactive)
[16]
  GI50: 0.0274 µM (active)
[17]
  GI50: < 0.01 µM (active)
[18]
  GI50: 4.21 µM (inactive)
[19]
  GI50: 3.33 µM (inactive)
[20]
  GI50: 0.0942 µM (active)
[21]
  GI50: 0.0215 µM (active)
[22]
  GI50: < 0.01 µM (active)
[24]
  GI50: 0.0238 µM (active)
[25]
  GI50: 0.254 µM (active)
[26]
  GI50: 0.0336 µM (active)
[57]
  GI50: 0.0223 µM (active)
[27]
  GI50: 3.38 µM (inactive)
[58]
  GI50: 0.0904 µM (active)
[28]
  GI50: 4.78 µM (inactive)
[29]
  GI50: 5.94 µM (inactive)
[30]
  GI50: < 0.01 µM (active)
[31]
  GI50: < 0.01 µM (active)
[32]
  GI50: 0.197 µM (active)
[33]
  GI50: 0.0266 µM (active)
[34]
  GI50: 1.44 µM (inactive)
[35]
  GI50: 0.0308 µM (active)
[36]
  GI50: < 0.01 µM (active)
[37]
  GI50: 0.502 µM (active)
[39]
  GI50: 2.44 µM (inactive)
[40]
  GI50: 0.0252 µM (active)
[41]
  GI50: 0.361 µM (active)
[42]
  GI50: 0.427 µM (active)
[43]
  GI50: 0.246 µM (active)
[44]
  GI50: 1.22 µM (inactive)
[45]
  GI50: 0.308 µM (active)
[46]
  GI50: 0.489 µM (active)
[47]
  GI50: 0.281 µM (active)
[49]
  GI50: 10.9 µM (inactive)
[50]
  GI50: 0.0363 µM (active)
[51]
  GI50: 5.08 µM (inactive)
[52]
  GI50: < 0.01 µM (active)
[53]
  GI50: 0.256 µM (active)
[54]
  GI50: 0.0361 µM (active)
[55]
  GI50: 0.0438 µM (active)
[56]
  GI50: < 0.01 µM (active)

## CCC(NC(C)c1ccccc1)C(=O)c1ccc(OCc2ccccc2)c(OCc2ccccc2)c1 (centres undefined)
[1]
  GI50: > 100 µM (inactive)
[2]
  GI50: > 100 µM (inactive)
[3]
  GI50: > 100 µM (inactive)
[4]
  GI50: > 100 µM (inactive)
[5]
  GI50: > 100 µM (inactive)
[6]
  GI50: > 100 µM (inactive)
[7]
  GI50: 4.81 µM (inactive)
[8]
  GI50: > 100 µM (inactive)
[9]
  GI50: > 100 µM (inactive)
[10]
  GI50: > 100 µM (inactive)
[11]
  GI50: > 100 µM (inactive)
[12]
  GI50: > 100 µM (inactive)
[13]
  GI50: > 100 µM (inactive)
[14]
  GI50: > 100 µM (inactive)
[15]
  GI50: > 100 µM (inactive)
[17]
  GI50: > 100 µM (inactive)
[18]
  GI50: > 100 µM (inactive)
[19]
  GI50: > 100 µM (inactive)
[20]
  GI50: > 100 µM (inactive)
[21]
  GI50: > 100 µM (inactive)
[22]
  GI50: > 100 µM (inactive)
[23]
  GI50: > 100 µM (inactive)
[24]
  GI50: > 100 µM (inactive)
[25]
  GI50: > 100 µM (inactive)
[26]
  GI50: > 100 µM (inactive)
[57]
  GI50: > 100 µM (inactive)
[27]
  GI50: > 100 µM (inactive)
[58]
  GI50: > 100 µM (inactive)
[29]
  GI50: > 100 µM (inactive)
[30]
  GI50: > 100 µM (inactive)
[31]
  GI50: > 100 µM (inactive)
[32]
  GI50: > 100 µM (inactive)
[33]
  GI50: > 100 µM (inactive)
[34]
  GI50: > 100 µM (inactive)
[36]
  GI50: > 100 µM (inactive)
[37]
  GI50: > 100 µM (inactive)
[38]
  GI50: > 100 µM (inactive)
[39]
  GI50: > 100 µM (inactive)
[40]
  GI50: > 100 µM (inactive)
[41]
  GI50: > 100 µM (inactive)
[42]
  GI50: > 100 µM (inactive)
[43]
  GI50: > 100 µM (inactive)
[44]
  GI50: > 100 µM (inactive)
[45]
  GI50: > 100 µM (inactive)
[46]
  GI50: > 100 µM (inactive)
[47]
  GI50: > 100 µM (inactive)
[48]
  GI50: > 100 µM
[49]
  GI50: > 100 µM (inactive)
[50]
  GI50: > 100 µM (inactive)
[51]
  GI50: > 100 µM (inactive)
[53]
  GI50: > 100 µM (inactive)
[54]
  GI50: > 100 µM (inactive)
[55]
  GI50: > 100 µM (inactive)
[56]
  GI50: > 100 µM (inactive)
